# Assay results published in US20080114066A1, “Synergistic Effects Of Docosahexaenoic Acid (DHA) And Carotenoid Absorption Of Cognitive Function” (Trustees of Tufts College, priority 2005, published 2008).
# Assays:
# Assay type in all cases: in vivo, human
# [1] = system: non-smoking women (60-80 years); experiment: NES2 Mood Scales (self-reported mood); design: scale not given here; conditions: group mean
# Text: (§1) Subjects: Fifty non-smoking women (60-80 years) were recruited from the general population for a 4 month supplementation study. All subjects underwent a screening examination that includes a medical history, a physical examination, and a routine blood clinical chemistry profile. Volunteers with any history or biochemical evidence of lactose intolerance, liver, kidney, or pancreatic disease, anemia, active bowel disease or resection, insulin-dependent diabetes, easy bruising or bleeding, bleeding disorders, hyperglyceridemia, hyperlipidproteinemia, or alcoholism were excluded from the study. Moreover, individuals taking mineral oil or medications suspected of interfering with fat-soluble vitamin absorption were excluded. Subjects using steroids or non-steroid anti-inflammatory drugs, or antihistamine drugs were excluded. […] Subjects were excluded if they have taken any nutrient supplement for 2 months or more before admission into the study or carotene supplements 6 months or more before the study. Smoking was not permitted during the course of the study.
# (§2) Women were randomly assigned to one of four groups: Control (n=10), DHA (n=14, DHA 800 mg/d), lutein (n=12, lutein 12 mg/d), and lutein+DHA (n=14, lutein 12 mg/d; DHA 800 mg/d) (C, D, L, and LD, respectively). The supplement type was randomized. Subjects visited the Jean Mayer USDA Human Nutrition Research Center on Aging at Tufts University on days that supplements were distributed and blood obtained (0 mo-baseline, 2 mo, and 4 mo). Subjects were instructed to take the supplement with a nutritional energy drink (8 oz., Boost®, Mead Johnson Nutritionals) but were otherwise asked to not alter their diets. The diet of each subject was monitored with food frequency questionnaires (Block G, et al., A data-based approach to diet questionnaire design and testing. Am J Epidemiol, 1986. 24: p. 453-469) completed at baseline, 2 months and 4 months to be sure that there were no confounding changes in dietary intake. All subjects completed at least two sets of cognitive and mood self-report tests, at the beginning of the study, then at the end of the study, after four months of supplementation, at the Schepens Eye Research Institute. Compliance was by monitored by interview, compliance calendars and capsule count. Both the subjects and the experimenter were masked to the experimental groups. Blood samples were collected at baseline, 2 months and 4 months, and serum was separated from red blood cells (800×g, 10 minutes). Aliquots of serum are stored at −70° C. until analyzed. At baseline and 2 months, a two month supply of placebo supplements, DHA (800 mg/d, DHASCO, Martek Biological Sciences), lutein (12 mg/d plus 0.5 mg zeaxanthin, Kemin Foods), or lutein+DHA (12 mg/d and 800 mg/d, respectively and nutritional energy drink was provided. At baseline and 4 months, subjects visited the Schepens Eye Research Institute (Boston, Mass.) for testing of MP optical density (MPOD) and an ophthalmic exam. There were two visits at each time point.
# Supplementation Protocol. Dietary supplements in capsule form were Lutein (12 mg/day) (Kemin Foods) and Docosahexaenoic Acid (DHASCO) (800 mg/day) (Martek Biological Sciences). Participants in each of the four supplementation groups were instructed to drink one can of a nutritional supplement daily (Boost Plus) (Mead Johnson) when taking their capsules. Subjects ingested their dietary supplements daily for a period of 4 months. Both the subjects and the experimenter were masked to the experimental groups.
# Tests and Measurements. The battery of cognitive tests included tests of memory and processing speed or attention and a measure of self-reported mood. […] Early cognitive markers of the incidence of dementia and mortality: A longitudinal population-based study of the oldest old. International Journal of Geriatric Psychiatry, 12, 53-59; Payton, M., Riggs, K. M., Spiro III, A., Weiss, S. T. & Hu, H. (1998). […]
# [2] = system: non-smoking women (60-80 years); experiment: Verbal Fluency Test; conditions: group mean
# Text: as §1
# as §2, with “At baseline and 2 months, a two month supply of placebo supplements, DHA (800 mg/d, DHASCO, Martek Biological Sciences), lutein (12 mg/d plus 0.5 mg zeaxanthin, Kemin Foods), or lutein+DHA (12 mg/d and 800 mg/d, respectively and nutritional energy drink was provided. At baseline and 4 months, subjects visited the Schepens Eye Research Institute (Boston, Mass.) for testing of MP optical density (MPOD) and an ophthalmic exam. There were two visits at each time point.” left out
# [3] = system: macular pigment; experiment: Macular pigment optical density (MPOD), psychophysical method; conditions: for Mean increase in total MPOD (change from baseline): 4 months of supplementation, area under the curve of 5 loci, mean ± se
# Description: as §2
# The method of assessing MPOD involves a three-channel Maxwellian view optical system and used a psycho physical method described by Hammond et al. (Hammond B. R., et al., Vision Res, 1996. 36: p. 2001-2012). […] MPOD was measured in two baseline sessions on separate days and in two sessions on separate days at the end of 4 months of supplementation.
# Differences between cognitive and mood scores at baseline and after supplementation were tested by Student's t test for each treatment group. In the case of those variables where a significant change was found from baseline to end of study, correlations were calculated between age, education, serum levels of DHA and lutein, and test scores, for those test scores where the distribution was normal or near-normal. […]
# [4] = Baseline, before supplementation
# [5] = Final, after 4 months of supplementation
# [6] = Final, after 4 months of supplementation (DHA 800 mg/d and/or lutein 12 mg/d)
SMILES,"Mood Scales Anger [1, 4]","Mood Scales Confusion [1, 4]","Mood Scales Depression [1, 4]","Mood Scales Fatigue [1, 4]","Mood Scales Tension [1, 4]","Mood Scales Anger [1, 5]","Mood Scales Confusion [1, 5]","Mood Scales Depression [1, 5]","Mood Scales Fatigue [1, 5]","Mood Scales Tension [1, 5]","Verbal Fluency [2, 4]","Verbal Fluency [2, 6]","Retinal loci with significant increase in MPOD ([3]; 4 month change from baseline, loci 0.4°, 1.5°, 3°, 5°) [°]",Mean increase in total MPOD (change from baseline) [3] [OD],Subjects without increase in MPOD (non responders) ([3]; 4 months of lutein supplementation)
"CC/C=C\C/C=C\C/C=C\C/C=C\C/C=C\C/C=C\CCC(=O)O [DHA, cis-4,7,10,13,16,19-docosahexaenoic acid]",1.6,1.7,1.7,2.1,2.0,1.6,1.8,1.7,2.1,2.1,15.0,17.8,0.4,0.037±0.068,–
"CC1=C[C@H](O)CC(C)(C)[C@H]1/C=C/C(C)=C/C=C/C(C)=C/C=C/C=C(C)/C=C/C=C(C)/C=C/C1=C(C)C[C@@H](O)CC1(C)C [Lutein, lutein]",1.4,1.9,1.5,2.4,2.1,1.5,2.4,1.8,2.9,2.4,11.3,15.5,–,0.370±0.140,Two of 14
